Laboratory results published in ChEMBL document CHEMBL3991601, “The target landscape of clinical kinase drugs” (Science, 2017).
Activity calls are given as the source filed them.

Assays:
[1] = biological target: T1, Probable ATP-dependent RNA helicase DDX6 (Homo sapiens, UniProt P26196)
T1 sequence (P26196 whole entry): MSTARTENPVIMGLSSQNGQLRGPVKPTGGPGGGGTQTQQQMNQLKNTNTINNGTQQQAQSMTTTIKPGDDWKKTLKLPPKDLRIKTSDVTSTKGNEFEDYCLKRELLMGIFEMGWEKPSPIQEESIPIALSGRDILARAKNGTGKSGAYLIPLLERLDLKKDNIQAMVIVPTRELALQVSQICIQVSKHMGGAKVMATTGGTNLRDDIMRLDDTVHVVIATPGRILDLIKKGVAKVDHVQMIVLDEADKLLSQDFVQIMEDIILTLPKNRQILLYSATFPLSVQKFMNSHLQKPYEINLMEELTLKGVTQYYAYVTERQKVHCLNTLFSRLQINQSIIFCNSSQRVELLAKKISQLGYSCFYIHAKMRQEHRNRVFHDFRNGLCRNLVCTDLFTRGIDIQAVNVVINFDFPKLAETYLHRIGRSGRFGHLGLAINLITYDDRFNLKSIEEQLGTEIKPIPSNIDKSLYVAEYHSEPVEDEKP

[2] = biological target: NADH dehydrogenase [ubiquinone] 1 alpha subcomplex subunit 13 (Homo sapiens, UniProt Q9P0J0)
[3] = biological target: T2, Serine/threonine-protein kinase NLK (Homo sapiens, UniProt Q9UBE8)
T2 sequence (Q9UBE8 whole entry): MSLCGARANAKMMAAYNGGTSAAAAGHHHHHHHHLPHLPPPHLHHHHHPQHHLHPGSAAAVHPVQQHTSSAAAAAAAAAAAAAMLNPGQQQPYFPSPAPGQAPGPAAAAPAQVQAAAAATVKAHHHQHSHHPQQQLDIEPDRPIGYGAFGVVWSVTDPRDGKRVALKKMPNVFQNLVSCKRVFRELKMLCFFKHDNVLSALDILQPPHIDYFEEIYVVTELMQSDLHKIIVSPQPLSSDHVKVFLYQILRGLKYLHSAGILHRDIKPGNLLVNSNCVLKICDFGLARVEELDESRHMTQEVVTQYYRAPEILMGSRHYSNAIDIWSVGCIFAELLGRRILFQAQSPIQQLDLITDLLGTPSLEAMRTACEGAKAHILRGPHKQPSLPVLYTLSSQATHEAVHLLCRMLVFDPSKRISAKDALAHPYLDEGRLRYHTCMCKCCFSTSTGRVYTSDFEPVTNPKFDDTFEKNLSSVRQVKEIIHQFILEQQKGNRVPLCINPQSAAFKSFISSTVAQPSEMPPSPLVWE

[4] = biological target: T3, Ras-related protein Rab-27A (Homo sapiens, UniProt P51159)
T3 sequence (P51159 whole entry): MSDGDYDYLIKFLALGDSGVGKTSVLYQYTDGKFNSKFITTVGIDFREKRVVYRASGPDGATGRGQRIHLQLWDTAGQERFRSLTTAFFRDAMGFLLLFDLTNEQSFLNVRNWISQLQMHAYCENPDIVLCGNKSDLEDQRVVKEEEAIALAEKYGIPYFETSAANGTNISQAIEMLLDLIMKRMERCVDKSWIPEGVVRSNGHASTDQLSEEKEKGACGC

[5] = biological target: T4, Rab-like protein 3 (Homo sapiens, UniProt Q5HYI8)
T4 sequence (Q5HYI8 whole entry): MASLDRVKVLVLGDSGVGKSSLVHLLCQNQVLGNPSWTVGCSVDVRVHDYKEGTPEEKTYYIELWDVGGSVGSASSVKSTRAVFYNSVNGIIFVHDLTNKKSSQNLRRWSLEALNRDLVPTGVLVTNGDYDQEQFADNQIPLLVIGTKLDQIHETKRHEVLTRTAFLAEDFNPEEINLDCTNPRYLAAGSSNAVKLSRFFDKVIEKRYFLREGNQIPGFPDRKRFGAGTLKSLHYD

[6] = biological target: T5, Signal recognition particle receptor subunit alpha (Homo sapiens, UniProt P08240)
T5 sequence (P08240 whole entry): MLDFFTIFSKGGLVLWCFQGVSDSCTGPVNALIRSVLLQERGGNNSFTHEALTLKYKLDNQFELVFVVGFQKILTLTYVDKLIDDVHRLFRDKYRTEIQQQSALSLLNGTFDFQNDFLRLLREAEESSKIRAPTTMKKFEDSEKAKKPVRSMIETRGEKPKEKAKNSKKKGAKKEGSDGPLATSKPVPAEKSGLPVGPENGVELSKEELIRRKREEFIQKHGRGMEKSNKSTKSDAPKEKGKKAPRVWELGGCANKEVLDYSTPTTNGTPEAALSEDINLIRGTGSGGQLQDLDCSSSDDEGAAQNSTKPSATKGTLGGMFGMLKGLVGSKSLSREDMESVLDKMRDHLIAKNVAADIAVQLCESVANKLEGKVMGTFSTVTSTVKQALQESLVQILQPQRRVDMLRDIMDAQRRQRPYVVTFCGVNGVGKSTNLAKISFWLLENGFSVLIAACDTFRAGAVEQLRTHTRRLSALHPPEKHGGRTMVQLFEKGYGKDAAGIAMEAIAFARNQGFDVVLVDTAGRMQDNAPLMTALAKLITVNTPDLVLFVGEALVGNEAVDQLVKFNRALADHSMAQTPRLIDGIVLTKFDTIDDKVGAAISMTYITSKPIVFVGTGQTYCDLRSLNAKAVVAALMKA

[7] = biological target: T6, Uncharacterized protein FLJ45252 (Homo sapiens, UniProt Q6ZSR9); details: read-out: Kd apparent; k-562, colo 205, sk-n-be(2) and mv-4-11
T6 sequence (Q6ZSR9 whole entry): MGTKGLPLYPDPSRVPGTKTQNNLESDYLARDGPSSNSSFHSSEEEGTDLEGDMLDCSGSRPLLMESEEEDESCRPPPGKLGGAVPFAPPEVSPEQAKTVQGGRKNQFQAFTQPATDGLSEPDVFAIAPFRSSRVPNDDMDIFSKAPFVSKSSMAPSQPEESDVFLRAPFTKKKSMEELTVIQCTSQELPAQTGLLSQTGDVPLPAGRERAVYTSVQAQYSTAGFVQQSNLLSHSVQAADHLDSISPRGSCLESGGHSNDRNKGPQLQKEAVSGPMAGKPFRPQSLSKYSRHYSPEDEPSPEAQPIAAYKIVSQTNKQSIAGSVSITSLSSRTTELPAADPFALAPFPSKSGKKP
Further: in the data inactive means no Kd found up to 30 µM.

Chain of NADH dehydrogenase [ubiquinone] 1 alpha subcomplex subunit 13 (Q9P0J0 whole entry, one chain of several): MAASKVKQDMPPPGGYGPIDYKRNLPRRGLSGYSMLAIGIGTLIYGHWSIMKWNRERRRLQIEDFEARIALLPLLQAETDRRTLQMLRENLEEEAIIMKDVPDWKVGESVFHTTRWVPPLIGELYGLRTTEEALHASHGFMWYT

Row | SMILES | Kd [1] | Kd [2] | Kd [3] | Kd [4] | Kd [5] | Kd [6] | Kd [7]
1 | O=c1[nH]c([C@@H]2CCCN2)nc2c1oc1ccc(Cl)cc12 | > 30 µM (inactive) | > 30 µM (inactive) | > 30 µM (inactive) | > 30 µM (inactive) | > 30 µM (inactive) | > 30 µM (inactive) | > 30 µM (inactive)
2 | Cn1cc(-c2[nH]c3cc(NC(=O)[C@H](N)C4CCCCC4)cc4c3c2C=NNC4=O)cn1 | > 30 µM (inactive) | > 30 µM (inactive) | > 30 µM (inactive) | > 30 µM (inactive) | > 30 µM (inactive) | > 30 µM (inactive) | 0.002 µM (active)
3 | CCN1CCN(Cc2ccc(Nc3ncc(F)c(-c4cc(F)c5nc(C)n(C(C)C)c5c4)n3)nc2)CC1 [ABEMACICLIB] | > 30 µM (inactive) | > 30 µM (inactive) | > 30 µM (inactive) | > 30 µM (inactive) | > 30 µM (inactive) | > 30 µM (inactive) | 0.088 µM (active)
4 | C=CCn1c(=O)c2cnc(Nc3ccc(N4CCN(C)CC4)cc3)nc2n1-c1cccc(C(C)(C)O)n1 [ADAVOSERTIB] | > 30 µM (inactive) | > 30 µM (inactive) | > 30 µM (inactive) | > 30 µM (inactive) | > 30 µM (inactive) | > 30 µM (inactive) | > 30 µM (inactive)
5 | CN(C)C/C=C/C(=O)Nc1cc2c(Nc3ccc(F)c(Cl)c3)ncnc2cc1O[C@H]1CCOC1 [AFATINIB] | > 30 µM (inactive) | > 30 µM (inactive) |  | > 30 µM (inactive) | > 30 µM (inactive) | > 30 µM (inactive) | > 30 µM (inactive)
6 | CCc1cc2c(cc1N1CCC(N3CCOCC3)CC1)C(C)(C)c1[nH]c3cc(C#N)ccc3c1C2=O [ALECTINIB] | > 30 µM (inactive) | > 30 µM (inactive) | > 30 µM (inactive) | > 30 µM (inactive) | > 30 µM (inactive) | > 30 µM (inactive) | > 30 µM (inactive)
7 | S=C(NCc1ccc2c(c1)OCO2)N1CCN(c2ncnc3c2oc2ccccc23)CC1 [AMUVATINIB] | > 30 µM (inactive) | > 30 µM (inactive) | > 30 µM (inactive) | > 30 µM (inactive) | > 30 µM (inactive) | > 30 µM (inactive) | > 30 µM (inactive)
8 | COc1cc2nccc(Oc3ccc(NC(=O)C4(C(=O)Nc5ccc(F)cc5)CC4)cc3)c2cc1OC [CABOZANTINIB] | > 30 µM (inactive) | > 30 µM (inactive) | > 30 µM (inactive) | > 30 µM (inactive) | > 30 µM (inactive) | > 30 µM (inactive) | > 30 µM (inactive)
9 | c1cc(OCCN2CCCCC2)cc(-c2n[nH]c3ccc(-c4nc[nH]n4)cc23)c1 [CC-401] | > 30 µM (inactive) | > 30 µM (inactive) | > 30 µM (inactive) | > 30 µM (inactive) | > 30 µM (inactive) | > 30 µM (inactive) | 2.53 µM (active)
10 | COc1cc2ncnc(Nc3ccc(F)c(Cl)c3)c2cc1NC(=O)/C=C/CN1CCCCC1 [DACOMITINIB ANHYDROUS] | > 30 µM (inactive) | > 30 µM (inactive) | > 30 µM (inactive) | > 30 µM (inactive) | > 30 µM (inactive) | > 30 µM (inactive) | > 30 µM (inactive)
11 | N#CCNC(=O)c1ccc(-c2ccnc(Nc3ccc(N4CCOCC4)cc3)n2)cc1 [MOMELOTINIB] | > 30 µM (inactive) | > 30 µM (inactive) | > 30 µM (inactive) | > 30 µM (inactive) | > 30 µM (inactive) | > 30 µM (inactive) | 
12 | CC1(C)CNc2cc(NC(=O)c3cccnc3NCc3ccncc3)ccc21 [MOTESANIB] | > 30 µM (inactive) | > 30 µM (inactive) |  | > 30 µM (inactive) | > 30 µM (inactive) | > 30 µM (inactive) | > 30 µM (inactive)
13 | FC(F)(F)c1ccc(CNc2ccc(Cc3c[nH]c4ncc(Cl)cc34)cn2)cn1 [PEXIDARTINIB] | > 30 µM (inactive) | > 30 µM (inactive) | > 30 µM (inactive) | > 30 µM (inactive) | > 30 µM (inactive) | > 30 µM (inactive) | 
14 | Cn1cnc2c(F)c(Nc3ccc(Br)cc3Cl)c(C(=O)NOCCO)cc21 [SELUMETINIB] | > 30 µM (inactive) | > 30 µM (inactive) |  | > 30 µM (inactive) | > 30 µM (inactive) | > 30 µM (inactive) | 0.807 µM (active)
15 | COc1cc2c(N3CCN(C(=O)Nc4ccc(OC(C)C)cc4)CC3)ncnc2cc1OCCCN1CCCCC1 [TANDUTINIB] | > 30 µM (inactive) | > 30 µM (inactive) |  | > 30 µM (inactive) | > 30 µM (inactive) | > 30 µM (inactive) | > 30 µM (inactive)

More lines, now with the values ahead:

Row | Kd [1] | Kd [2] | Kd [3] | Kd [4] | Kd [5] | Kd [6] | Kd [7] | SMILES
16 | > 30 µM (inactive) | > 30 µM (inactive) | > 30 µM (inactive) | > 30 µM (inactive) | > 30 µM (inactive) | > 30 µM (inactive) | > 30 µM (inactive) | COc1ccc2c(OCc3nnc4ccc(-c5ccccc5)nn34)ccnc2c1 [AMG-208]
17 | > 30 µM (inactive) | > 30 µM (inactive) | > 30 µM (inactive) | > 30 µM (inactive) | > 30 µM (inactive) | > 30 µM (inactive) | > 30 µM (inactive) | Cc1cc(Nc2nc(N[C@@H](C)c3ncc(F)cn3)ncc2Cl)n[nH]1 [AZD-1480]
18 | > 30 µM (inactive) |  |  | > 30 µM (inactive) | > 30 µM (inactive) | > 30 µM (inactive) | > 30 µM (inactive) | C[C@@]1(C(=O)Nc2ccc(F)nc2)CCCN1c1nc(Nc2cc(C3CC3)n[nH]2)c2cccn2n1 [BMS-754807]
19 | > 30 µM (inactive) |  | > 30 µM (inactive) | > 30 µM (inactive) | > 30 µM (inactive) | > 30 µM (inactive) |  | CCOc1ccn(-c2ccc(F)cc2)c(=O)c1C(=O)Nc1ccc(Oc2ccnc(N)c2Cl)c(F)c1 [BMS-777607]
20 | > 30 µM (inactive) | > 30 µM (inactive) |  | > 30 µM (inactive) | > 30 µM (inactive) | > 30 µM (inactive) | > 30 µM (inactive) | NC(=O)c1ccc(N(C(N)=O)c2c(F)cccc2F)nc1-c1ccc(F)cc1F [VX-702]
